Experimental data published in patent publication US12583826B2, “[(1,5-diphenyl-1H-1,2,4-triazol-3-yl)oxy]acetic acid derivatives and salts thereof, crop protection compositions comprising them, methods for producing them and use thereof as safeners” (Bayer Aktiengesellschaft, priority 2019, dated 2026).

Columns and labels:
[1] = test system: summer barley (HORVS; cv. Montoya); assay: Absolute action: reduction of damage by mesosulfuron-methyl on summer barley, greenhouse post-emergence; assay type: in vivo; settings: for Absolute reduction in damage (difference): mesosulfuron-methyl 20 g/ha, damage without minus with safener; for Herbicide damage with compound of the formula (I) (%): then mesosulfuron-methyl 20 g/ha, visual 0-100% scale, 14-21 days after application
Procedure: (§1) 2.2 Absolute Action of Selected Compounds of the Invention Using the Example of Reduction of Damage by Mesosulfuron-Methyl on Summer Barley (HORVS) The seeds of the crop plants to be treated are aid out in sandy loam in wood fiber or plastic pots (diameter ˜4 cm), covered with soil and grown in a greenhouse under good conditions for germination and growth. The trial plants were treated at the early leaf stage (BBCE10-BBCH12). In the course of this, the inventive compounds of the general formula (I) formulated in the form of wettable powders (WP) were sprayed onto the above-ground parts of the plants as an aqueous suspension with a water application rate corresponding to 800 l/ha with addition of wetting agent (e.g. 0.2% agrotin) in the specified dose. This was followed by the application of the herbicide. For this purpose, mesosulfuron-methyl, formulated in the form of water-dispersible granules (WG), was sprayed onto the above-ground parts of the plants in the form of an aqueous dispersion with a water application rate corresponding to 800 l/ha with addition of wetting agent (e.g. 0.2% agrotin) in a dose of 20 g/ha. The dose of the herbicide was chosen here such that it causes visually apparent damage (min. 30%, max. 75%) compared to untreated crop plants at the evaluation time on a control group of crop plants without safener treatment that were included in the same trial. After application, the plants were cultivated under good growth conditions in a greenhouse. The damage was visually assessed 14-21 days after application. The damage effect was assessed visually on a scale of 0-100% by comparison with untreated control plants, and averaged over 2-3 repeats per treatment. Examples: • 0%=no noticeable effect compared to the untreated plant • 20%=the treated plant population has 20% damage compared to the untreated control population (e.g.: growth height, leaf damage, etc.) • 100%=treated plants completely damaged/killed.

[2] = test system: summer wheat (TRZAS; cv. Triso); assay: Absolute action: reduction of damage by mesosulfuron-methyl on summer wheat, greenhouse post-emergence; assay type: in vivo; settings: for Absolute reduction in herbicide damage (damage without safener minus damage with safener): mesosulfuron-methyl 20 g/ha; for Herbicide damage with compound of the formula (I): then mesosulfuron-methyl 20 g/ha, visual 0-100% scale, 14-21 days after application
Procedure: as §1, with “2.1” for “2.2”, “Wheat (TRZAS)” for “Barley (HORVS)”, “laid” for “aid”, “grow” for “grown”, “(BBCH10—BBCH12).” for “(BBCE10-BBCH12).”, “(e.g.” for “(e.g.:”

O=C(O)COc1nc(-c2ccccc2F)n(-c2ccc(Cl)cc2F)n1 [I.6-49]
Absolute reduction in damage (difference) ([1]; safener 250 g a.i./ha): 20% | Herbicide damage with compound of the formula (I) (%) ([1]; safener 250 g a.i./ha): 40% | Absolute reduction in damage (difference) ([1]; safener 1000 g a.i./ha): 30% | Herbicide damage with compound of the formula (I) (%) ([1]; safener 1000 g a.i./ha): 30% | Absolute reduction in herbicide damage (damage without safener minus damage with safener) ([2]; safener 250 g/ha): 30% | Herbicide damage with compound of the formula (I) ([2]; safener 250 g/ha): 27%

CCOC(=O)COc1nc(-c2ccc(F)cc2)n(-c2ccc(F)cc2F)n1 [I.11-38]
Absolute reduction in herbicide damage (damage without safener minus damage with safener) ([2]; safener dose not given): 20% | Herbicide damage with compound of the formula (I) ([2]; safener dose not given): 30%

O=C(O)COc1nc(-c2ccc(F)cc2)n(-c2ccc(Cl)cc2)n1 [I.12-7]
Absolute reduction in damage (difference) ([1]; safener 1000 g a.i./ha): 20% | Herbicide damage with compound of the formula (I) (%) ([1]; safener 1000 g a.i./ha): 40% | Absolute reduction in herbicide damage (damage without safener minus damage with safener) ([2]; safener 250 g/ha): 23% | Herbicide damage with compound of the formula (I) ([2]; safener 250 g/ha): 20%

CCOC(=O)COc1nc(-c2ccc(Cl)cc2)n(-c2ccccc2)n1 [I.20-1]
Absolute reduction in herbicide damage (damage without safener minus damage with safener) ([2]; safener 250 g/ha): 30% | Herbicide damage with compound of the formula (I) ([2]; safener 250 g/ha): 13% | Absolute reduction in herbicide damage (damage without safener minus damage with safener) ([2]; safener 1000 g/ha): 36% | Herbicide damage with compound of the formula (I) ([2]; safener 1000 g/ha): 7%

O=C(O)COc1nc(-c2ccc(Cl)cc2)n(-c2ccc(F)cc2F)n1 [I.21-38]
Absolute reduction in damage (difference) ([1]; safener 250 g a.i./ha): 30% | Herbicide damage with compound of the formula (I) (%) ([1]; safener 250 g a.i./ha): 30% | Absolute reduction in damage (difference) ([1]; safener 1000 g a.i./ha): 40% | Herbicide damage with compound of the formula (I) (%) ([1]; safener 1000 g a.i./ha): 20% | Absolute reduction in herbicide damage (damage without safener minus damage with safener) ([2]; safener 1000 g/ha): 23% | Herbicide damage with compound of the formula (I) ([2]; safener 1000 g/ha): 20%

COc1ccccc1-c1nc(OCC(=O)O)nn1-c1ccccc1F [I.24-2]
Absolute reduction in herbicide damage (damage without safener minus damage with safener) ([2]; safener 500 g a.i./ha): 20% | Herbicide damage with compound of the formula (I) ([2]; safener 500 g a.i./ha): 30%

CCOC(=O)COc1nc(-c2ccc(F)cc2F)n(-c2ccc(Cl)cc2)n1 [I.41-7]
Absolute reduction in damage (difference) ([1]; safener 1000 g a.i./ha): 40% | Herbicide damage with compound of the formula (I) (%) ([1]; safener 1000 g a.i./ha): 20% | Absolute reduction in herbicide damage (damage without safener minus damage with safener) ([2]; safener 250 g/ha): 23% | Herbicide damage with compound of the formula (I) ([2]; safener 250 g/ha): 20%

CCOC(=O)COc1nc(-c2ccc(F)cc2F)n(-c2ccc(F)cc2F)n1 [I.41-38]
Absolute reduction in damage (difference) ([1]; safener 250 g a.i./ha): 23% | Herbicide damage with compound of the formula (I) (%) ([1]; safener 250 g a.i./ha): 30% | Absolute reduction in damage (difference) ([1]; safener 1000 g a.i./ha): 23% | Herbicide damage with compound of the formula (I) (%) ([1]; safener 1000 g a.i./ha): 30%

O=C(O)COc1nc(-c2ccc(F)cc2F)n(-c2ccc(Cl)cc2)n1 [I.42-7, {[1-(4-Chlorophenyl)-5-(2,4-difluorophenyl)-1H-1,2,4-triazol-3-yl]oxy}acetic acid]
Absolute reduction in damage (difference) ([1]; safener 250 g a.i./ha): 60% | Herbicide damage with compound of the formula (I) (%) ([1]; safener 250 g a.i./ha): 0% | Absolute reduction in herbicide damage (damage without safener minus damage with safener) ([2]; safener 250 g/ha): 43% | Herbicide damage with compound of the formula (I) ([2]; safener 250 g/ha): 0%

COC(=O)COc1nc(-c2ccc(Cl)cc2Cl)n(-c2ccc(Cl)cc2Cl)n1 [I.43-32]
Absolute reduction in damage (difference) ([1]; safener 125 g a.i./ha): 26% | Herbicide damage with compound of the formula (I) (%) ([1]; safener 125 g a.i./ha): 37% | Absolute reduction in damage (difference) ([1]; safener 500 g a.i./ha): 33% | Herbicide damage with compound of the formula (I) (%) ([1]; safener 500 g a.i./ha): 30% | Absolute reduction in herbicide damage (damage without safener minus damage with safener) ([2]; safener 125 g a.i./ha): 33% | Herbicide damage with compound of the formula (I) ([2]; safener 125 g a.i./ha): 30% | Absolute reduction in herbicide damage (damage without safener minus damage with safener) ([2]; safener 500 g a.i./ha): 43% | Herbicide damage with compound of the formula (I) ([2]; safener 500 g a.i./ha): 20%

O=C(O)COc1nc(-c2ccc(Cl)cc2Cl)n(-c2ccccc2F)n1 [I.45-2]
Absolute reduction in herbicide damage (damage without safener minus damage with safener) ([2]; safener 500 g a.i./ha): 20% | Herbicide damage with compound of the formula (I) ([2]; safener 500 g a.i./ha): 30%

O=C(O)COc1nc(-c2ccc(Cl)cc2Cl)n(-c2ccc(Cl)cc2Cl)n1 [I.45-32]
Absolute reduction in herbicide damage (damage without safener minus damage with safener) ([2]; safener 125 g a.i./ha): 23% | Herbicide damage with compound of the formula (I) ([2]; safener 125 g a.i./ha): 40% | Absolute reduction in herbicide damage (damage without safener minus damage with safener) ([2]; safener 500 g a.i./ha): 30% | Herbicide damage with compound of the formula (I) ([2]; safener 500 g a.i./ha): 33%
